Bounds are passed on as bounds.

Experiment [1] deals with CDK2/Cyclin E1 full length (Homo sapiens (Human), UniProt P24941). Nature of the experiment: CDK2/Cyclin E1 full length mobility shift assay. The class given is biochemical.
In experiment [2] the target is GSK3β (H350L) (Homo sapiens (Human), UniProt P49841). To be noted: read-out: GSK3β Ki.
Sequence of GSK3β (H350L) (P49841 whole entry, stated change not applied): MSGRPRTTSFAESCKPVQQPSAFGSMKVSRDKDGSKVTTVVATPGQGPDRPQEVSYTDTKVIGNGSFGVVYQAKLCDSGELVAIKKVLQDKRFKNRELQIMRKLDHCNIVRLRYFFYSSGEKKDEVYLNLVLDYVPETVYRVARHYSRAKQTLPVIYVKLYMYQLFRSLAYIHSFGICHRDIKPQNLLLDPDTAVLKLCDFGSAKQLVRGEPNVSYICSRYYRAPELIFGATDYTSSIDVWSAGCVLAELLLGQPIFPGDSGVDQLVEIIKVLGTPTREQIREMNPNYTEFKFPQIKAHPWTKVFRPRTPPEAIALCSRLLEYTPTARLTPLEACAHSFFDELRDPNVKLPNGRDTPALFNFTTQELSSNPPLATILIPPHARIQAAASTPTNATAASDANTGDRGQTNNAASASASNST
Experimental: The assay was initiated with the addition of ATP, following 15 minutes pre-incubation of enzyme and inhibitor at room temperature in the reaction mixture. The reaction was stopped after 30 minutes at room temperature by the addition of 50 μL of 80 mM EDTA.

`CC(C)NC(=O)O[C@@H]1CC[C@H](c2cc(NC(=O)c3cnnn3C)n[nH]2)C1` [Example 262, (1R,3S)-3-(3-{[(1-methyl-1H-1,2,3-triazol-5-yl)carbonyl]amino}-1H-pyrazol-5-yl)cyclopentyl propan-2-ylcarbamate]: the figures for the Ki in experiment [1] and in experiment [2] were 0.64 nM and more than 47.6 nM, respectively.

In the case of `CC(C)NC(=O)O[C@H]1CC[C@@H](c2cc(NC(=O)Cc3ccno3)n[nH]2)C1` [Example 263, (1S,3R)-3-{3-[(1,2-oxazol-5-ylacetyl)amino]-1H-pyrazol-5-yl}cyclopentyl propan-2-ylcarbamate], the Ki (usually a measure of affinity in units of concentration, obtained from inhibition or displacement) in experiment [1] amounted to 0.52 nM; in experiment [2], 31.9 nM.

For `CC(C)NC(=O)O[C@H]1CC[C@@H](c2cc(NC(=O)Cc3cnn(C)c3)n[nH]2)C1` [Example 266, (1S,3R)-3-(3-{[(1-methyl-1H-pyrazol-4-yl)acetyl]amino}-1H-pyrazol-5-yl)cyclopentyl propan-2-ylcarbamate], the values for the inhibitory constant (Ki) in experiment [1] and in experiment [2] were 0.39 nM and 32.6 nM, respectively.

On to `Cc1cnc(CC(=O)Nc2cc([C@@H]3CC[C@H](OC(=O)NC(C)C)C3)[nH]n2)o1` [Example 270, (1S,3R)-3-(3-{[(5-methyl-1,3-oxazol-2-yl)acetyl]amino}-1H-pyrazol-5-yl)cyclopentyl propan-2-ylcarbamate], for which the figures for the Ki in experiment [1] and in experiment [2] were 0.86 nM and 39.9 nM, respectively.

As for `Cc1coc(CC(=O)Nc2cc([C@H]3CC[C@@H](OC(=O)NC(C)C)C3)[nH]n2)n1` [Example 272, (1R,3S)-3-(3-{[(4-methyl-1,3-oxazol-2-yl)acetyl]amino}-1H-pyrazol-5-yl)cyclopentyl propan-2-ylcarbamate], the Ki was determined as 2.63 nM in experiment [1] and 40.9 nM in experiment [2].

For the compound `COc1ccc(CC(=O)Nc2cc([C@H]3CC[C@@H](OC(=O)NC(C)C)C3)[nH]n2)cc1` [Example 275, (1R,3S)-3-(3-{[(4-methoxyphenyl)acetyl]amino}-1H-pyrazol-5-yl)cyclopentyl propan-2-ylcarbamate], the values for the inhibition constant (Ki) in experiment [1] and in experiment [2] were 0.49 nM and 53.1 nM, respectively.

For `COc1cc(CC(=O)Nc2cc([C@H]3CC[C@@H](OC(=O)NC(C)C)C3)[nH]n2)ccn1` [Example 276, (1R,3S)-3-(3-{[(2-methoxypyridin-4-yl)acetyl]amino}-1H-pyrazol-5-yl)cyclopentyl propan-2-ylcarbamate], the Ki in experiment [1] is 0.64 nM; in experiment [2], 33.1 nM.

With `COCCn1nccc1C(=O)Nc1cc([C@H]2CC[C@@H](OC(=O)NC(C)C)C2)[nH]n1` [Example 278, (1R,3S)-3-[3-({[1-(2-methoxyethyl)-1H-pyrazol-5-yl]carbonyl}amino)-1H-pyrazol-5-yl]cyclopentyl propan-2-ylcarbamate], the results for the Ki in experiment [1] and in experiment [2] were 0.52 nM and 56.7 nM, respectively.

Turning to `CC(C)NC(=O)O[C@@H]1CC[C@H](c2cc(NC(=O)Cc3cc(F)cc(F)c3)n[nH]2)C1` [Example 279, (1R,3S)-3-(3-{[(3,5-difluorophenyl)acetyl]amino}-1H-pyrazol-5-yl)cyclopentyl propan-2-ylcarbamate], the Ki in experiment [1] amounted to 0.32 nM; in experiment [2], 53.2 nM.

`COc1ncc(CC(=O)Nc2cc([C@H]3CC[C@@H](OC(=O)NC(C)C)C3)[nH]n2)s1` [Example 281, (1R,3S)-3-(3-{[(2-methoxy-1,3-thiazol-5-yl)acetyl]amino}-1H-pyrazol-5-yl)cyclopentyl propan-2-ylcarbamate]: the Ki in experiment [1] was found to be 0.33 nM; in experiment [2], 24.4 nM.

Take `Cc1cc(CC(=O)Nc2cc([C@H]3CC[C@@H](OC(=O)N(C)C(C)C)C3)[nH]n2)on1` [Example 289, (1R,3S)-3-(3-{[(3-methyl-1,2-oxazol-5-yl)acetyl]amino}-1H-pyrazol-5-yl)cyclopentyl methyl(propan-2-yl)carbamate]: the results for the Ki in experiment [1] and in experiment [2] were 0.49 nM and 10.6 nM, respectively.

Regarding `Cn1nncc1C(=O)Nc1cc([C@H]2CC[C@@H](OC(=O)NC(C)(C)C)C2)[nH]n1` [Example 293, (1R,3S)-3-(3-{[(1-methyl-1H-1,2,3-triazol-5-yl)carbonyl]amino}-1H-pyrazol-5-yl)cyclopentyl tert-butylcarbamate], the Ki was 0.85 nM in experiment [1] and more than 95.3 nM in experiment [2].

As for `CC(C)(C)NC(=O)O[C@@H]1CC[C@H](c2cc(NC(=O)Cc3ccccn3)n[nH]2)C1` [Example 294, (1R,3S)-3-{3-[(pyridin-2-ylacetyl)amino]-1H-pyrazol-5-yl}cyclopentyl tert-butylcarbamate], the Ki in experiment [1] was found to be 0.62 nM; in experiment [2] it was 32 nM.

`Cc1cc(CC(=O)Nc2cc([C@H]3CC[C@@H](OC(=O)NC(C)(C)C)C3)[nH]n2)no1` [Example 295, (1R,3S)-3-(3-{[(5-methyl-1,2-oxazol-3-yl)acetyl]amino}-1H-pyrazol-5-yl)cyclopentyl tert-butylcarbamate]: the Ki in experiment [1] stood at 0.38 nM; in experiment [2], 56.1 nM.

As for `Cc1nnc(CC(=O)Nc2cc([C@H]3CC[C@@H](OC(=O)NC(C)(C)C)C3)[nH]n2)o1` [Example 298, (1R,3S)-3-(3-{[(5-methyl-1,3,4-oxadiazol-2-yl)acetyl]amino}-1H-pyrazol-5-yl)cyclopentyl tert-butylcarbamate], the Ki worked out at 0.68 nM in experiment [1] and 72 nM in experiment [2].

As for `Cc1cnc(CC(=O)Nc2cc([C@H]3CC[C@@H](OC(=O)NC(C)(C)C)C3)[nH]n2)cn1` [Example 299, (1R,3S)-3-(3-{[(5-methylpyrazin-2-yl)acetyl]amino}-1H-pyrazol-5-yl)cyclopentyl tert-butylcarbamate], the Ki in experiment [1] stood at 0.26 nM; in experiment [2] it was 29.9 nM.

`COCCn1nccc1C(=O)Nc1cc([C@H]2CC[C@@H](OC(=O)NC(C)(C)C)C2)[nH]n1` [Example 308, (1R,3S)-3-[3-({[1-(2-methoxyethyl)-1H-pyrazol-5-yl]carbonyl}amino)-1H-pyrazol-5-yl]cyclopentyl tert-butylcarbamate]: the Ki in experiment [1] is 0.3 nM; in experiment [2], 89.1 nM.

With `CC(C)(C)NC(=O)O[C@@H]1CC[C@H](c2cc(NC(=O)Cc3cc(C(F)F)ccn3)n[nH]2)C1` [Example 314, (1R,3S)-3-[3-({[4-(difluoromethyl)pyridin-2-yl]acetyl}amino)-1H-pyrazol-5-yl]cyclopentyl tert-butylcarbamate], the Ki in experiment [1] is 0.41 nM; in experiment [2], 40.6 nM.

On to `COc1cc(CC(=O)Nc2cc([C@H]3CC[C@@H](OC(=O)NC(C)(C)C)C3)[nH]n2)c(OC)cn1` [Example 315, (1R,3S)-3-(3-{[(2,5-dimethoxypyridin-4-yl)acetyl]amino}-1H-pyrazol-5-yl)cyclopentyl tert-butylcarbamate], for which the values for the Ki in experiment [1] and in experiment [2] were 0.65 nM and 133 nM, respectively.

On to `CC(C)(C)NC(=O)O[C@@H]1CC[C@H](c2cc(NC(=O)Cc3cnc(C(F)(F)F)cn3)n[nH]2)C1` [Example 317, (1R,3S)-3-[3-({[5-(trifluoromethyl)pyrazin-2-yl]acetyl}amino)-1H-pyrazol-5-yl]cyclopentyl tert-butylcarbamate], for which the inhibition constant (Ki) was 0.26 nM in experiment [1] and 46 nM in experiment [2].

For the compound `COc1ccc(S(C)(=O)=O)c(CC(=O)Nc2cc([C@H]3CC[C@@H](OC(=O)NC(C)(C)C)C3)[nH]n2)c1` [Example 319, (1R,3S)-3-[3-({[5-methoxy-2-(methylsulfonyl)phenyl]acetyl}amino)-1H-pyrazol-5-yl]cyclopentyl tert-butylcarbamate], the figures for the Ki in experiment [1] and in experiment [2] were 0.39 nM and 123 nM, respectively.

For the compound `CC[C@H](C)NC(=O)O[C@@H]1CC[C@H](c2cc(NC(=O)c3cncn3C)n[nH]2)C1` [Example 321, (1R,3S)-3-(3-{[(1-methyl-1H-imidazol-5-yl)carbonyl]amino}-1H-pyrazol-5-yl)cyclopentyl (2S)-butan-2-ylcarbamate], the Ki in experiment [1] is 0.63 nM; in experiment [2] it was more than 191 nM.

With `CC[C@@H](C)NC(=O)O[C@@H]1CC[C@H](c2cc(NC(=O)Cc3ccno3)n[nH]2)C1` [Example 322, (1R,3S)-3-{3-[(1,2-oxazol-5-ylacetyl)amino]-1H-pyrazol-5-yl}cyclopentyl (2R)-butan-2-ylcarbamate], the inhibition constant Ki turned out to be 0.93 nM in experiment [1] and 81.2 nM in experiment [2].

As for `CC[C@H](C)NC(=O)O[C@@H]1CC[C@H](c2cc(NC(=O)Cc3ccon3)n[nH]2)C1` [Example 323, (1R,3S)-3-{3-[(1,2-oxazol-3-ylacetyl)amino]-1H-pyrazol-5-yl}cyclopentyl (2S)-butan-2-ylcarbamate], the inhibition constant Ki in experiment [1] was determined as 1.07 nM; in experiment [2] it was 74.1 nM.

Take `CC[C@H](C)NC(=O)O[C@@H]1CC[C@H](c2cc(NC(=O)c3ccc(C)nc3)n[nH]2)C1` [Example 324, (1R,3S)-3-(3-{[(6-methylpyridin-3-yl)carbonyl]amino}-1H-pyrazol-5-yl)cyclopentyl (2S)-butan-2-ylcarbamate]: the Ki in experiment [1] turned out to be 0.54 nM; in experiment [2], 94.3 nM.

For `CC[C@H](C)NC(=O)O[C@@H]1CC[C@H](c2cc(NC(=O)Cc3cnccn3)n[nH]2)C1` [Example 325, (1R,3S)-3-{3-[(pyrazin-2-ylacetyl)amino]-1H-pyrazol-5-yl}cyclopentyl (2S)-butan-2-ylcarbamate], the values for the Ki in experiment [1] and in experiment [2] were 0.81 nM and 54 nM, respectively.

`CC[C@H](C)NC(=O)O[C@@H]1CC[C@H](c2cc(NC(=O)Cc3ccnn3C)n[nH]2)C1` [Example 326, (1R,3S)-3-(3-{[(1-methyl-1H-pyrazol-5-yl)acetyl]amino}-1H-pyrazol-5-yl)cyclopentyl (2S)-butan-2-ylcarbamate]: the Ki was found to be 1.17 nM in experiment [1] and 72.4 nM in experiment [2].

For `CC[C@H](C)NC(=O)O[C@@H]1CC[C@H](c2cc(NC(=O)Cc3cnn(C)c3)n[nH]2)C1` [Example 327, (1R,3S)-3-(3-{[(1-methyl-1H-pyrazol-4-yl)acetyl]amino}-1H-pyrazol-5-yl)cyclopentyl (2S)-butan-2-ylcarbamate], the Ki in experiment [1] amounted to 0.44 nM; in experiment [2] it was 57.8 nM.

Turning to `CC[C@H](C)NC(=O)O[C@@H]1CC[C@H](c2cc(NC(=O)Cc3cncn3C)n[nH]2)C1` [Example 329, (1R,3S)-3-(3-{[(1-methyl-1H-imidazol-5-yl)acetyl]amino}-1H-pyrazol-5-yl)cyclopentyl (2S)-butan-2-ylcarbamate], the inhibitory constant (Ki) in experiment [1] was 1.02 nM; in experiment [2] it was 107 nM.
